According to patent US11597708B2, “Inhibitors of heat shock factors and uses thereof” (HSF Pharmaceuticals SA, priority 2016, dated 2023):

Tested on: HeLa
Assay: Alamar Blue viability assay
Format: cell-based, human
Details: for Viability of HeLa cells (Alamar Blue): 96 hours exposure, attached cells
Procedure: FIG. 5. (A) Viability of HeLa cell cultures mock-exposed (−) or exposed to the indicated concentrations of compounds 001, 058 or 115. (B) Viability of MM.1S cells mock-exposed (−) or exposed to the indicated concentrations of compound 115. Viability was assayed after 96 hours of exposure using an Alamar Blue assay.
FIG. 6. (A) HeLa cell cultures were mock-exposed (−) or exposed to the indicated concentrations of compound 115 for 24 (left panel) or 96 (right panel) hours. Cell viability of total cultures, floating cells and attached cells was assayed using an Alamar Blue assay. (B) HeLa cell cultures were mock-exposed (−) or exposed to the indicated concentrations of compound 115 for 15-96 hours. Trypan Blue dye exclusion was employed to determine numbers of live cells (left panel) and relative levels of necrotic cells (right panel). (C) HeLa cell cultures were mock-exposed (−) or exposed to the indicated concentrations of compound 115 for 6 and 24 h. Shown are relative levels of early apoptotic cells (annexin-positive, 7 aminoactinomycin D-negative). (D) Flow cytometric analysis of DNA of HeLa cell cultures mock-exposed (−) or exposed to the indicated concentrations of compound 115 for 6, 15 and 24 hours. Relative levels of apoptotic cells are indicated.
Cultures of HeLa cells were exposed for 96 hours to different concentrations of IHSF 001, 058 and 115, and viability was assessed using an Alamar Blue assay. It is noted that this standard assay examines attached cells only. This subject will be discussed in more detail below. […] The relative cytotoxicity of the compounds appears to parallel their respective activities as inhibitors of HSF1 function (inhibition of RLuc expression in Z74 cells). We next examined the viability of different human cancer cell lines subsequent to a 96-hour exposure to compound 115 (Table 3). HSF1 was reported as being required for optimal p21 expression and for p53-mediated cell cycle arrest in response to genotoxins. Logan, I. R. et al. (2009) Nucleic Acids Res. 37: 2962-2971. […] Cell lines of different p53 status were included in the experiments in order to find out whether sensitivity to IHSF 115 was related to p53 status. […] No effect of p53 status could be discovered. It is noted that a number of additional HSF inhibitors of the present disclosure were tested and found to effectively reduce the viability of human cancer cells.
Further studies were aimed at finding out whether IHSF-exposed cancer cells were only growth-arrested or were actually killed and, if they were killed, by what mechanism. In one type of experiment, parallel sets of HeLa cell cultures were exposed for either 24 or 96 hours to different concentrations of IHSF 115. The first set was assayed for viability by the Alamar Blue assay without prior removal of floating cells. Attached and floating cells were assayed separately in the second set; floating cells were subsequently re-plated and incubated for 72 hours without compound. […] The viability signal (in whole cultures and, more dramatically, when only attached cells were analyzed) decreased as a function of IHSF concentration. Most floating cells were incapable of re-attaching in the absence of compound (not shown); apparently, these cells had died. More profound effects were observed after 96 hours (right panel) than after 24 hours of exposure (left panel). […] Stained (necrotic) and unstained (live) cells were counted (FIG. 6B). […]

In the case of `CCOC(=O)/C=C/C(=O)Nc1nccs1` [IHSF 001, (E)-ethyl 4-oxo-4-(thiazol-2-ylamino)but-2-enoate], the “Viability of HeLa cells (Alamar Blue)” value (different concentrations) is reported as “decreased in a dose-dependent fashion”.
For `CCOC(=O)/C=C/C(=O)Nc1ncc(-c2cccnc2)s1` [IHSF 058, (E)-3-(5-Pyridm-3-yl-thiazol-2-ylcarbamoyl)-acrylic acid ethyl ester], the “Viability of HeLa cells (Alamar Blue)” value (different concentrations) was “decreased in a dose-dependent fashion”.
With `CN(C(=O)/C=C/C1=NCCCO1)c1ncc(-c2cccnc2)s1` [IHSF 115, (E)-3-(5,6-Dihydro-4H-[1,3]oxazin-2-yl)-N-methyl-N-(5-pyridin-3-yl-thiazol-2-yl)-acrylamide] the “killing of HeLa cells (Alamar Blue, total, floating and attached cells)” value (24 or 96 hours exposure, different concentrations) was “killed by IHSF 115 in a concentration- and exposure time-dependent fashion”, the “Viability of HeLa cells (Alamar Blue)” value (different concentrations) was “decreased in a dose-dependent fashion” and the EC50 (Homo sapiens, HeLa, Cervical, P53 Wt, 96-hour exposure) was 6.2 µM.
